Measured values published in US20080280862A1, “Methods, compositions, and kits for the treatment of pain” (priority 2007, published 2008).

Experiments:
[1] = test system: formalin-induced pain model in rats; test: Formalin pain model, nociceptive behaviors; type: in vivo, Sprague-Dawley rats; conditions: Experiment Two
Description: The formalin model is a fast, reliable model used to assess potential analgesics ability to block inflammatory pain. The analgesic effects of test article combinations on pain generation are assayed using the formalin-induced pain model in rats. Adult male Sprague-Dawley rats are administered intraperitoneally study drugs (vehicle, TCA, steroid or TCA/Steroid test article combinations) once daily for 2 days (day −2 and day −1) and 30 minutes prior to the formalin injection day on day 0 (time=0). […] To elicit a pain response, dilute formalin (2% in saline) is injected under the skin of the plantar surface of the right hindpaw. The animal is placed in an observation chamber. The pain response is a characteristic biphasic response pattern of nociceptive behaviors (lifting, licking, and biting of the injected paw). Two distinct periods of nociceptive behaviors/activity are observed and recorded: an early phase (phase I) lasting the first 5-10 min and a late phase (phase II) lasting 20-40 min after the injection of formalin. One hour of data is collected (time spent displaying pain behavior) by a blinded observer using a stopwatch. Results are expressed as the number of pain behaviors per 5 minute periods (Table 8 and Table 9).

[2] = test system: acetic acid-induced pain model in mice; test: Acetic acid pain model, writhes; type: in vivo, ICR mice
Description: The acetic acid is a reliable fast model for noxious/visceral pain usually used for screening potential drug candidates for their analgesic activity. The effects of test article combinations on pain generation are assayed using the acetic acid-induced pain model in mice. Adult male ICR mice are administered study drugs intraperitoneally (vehicle, TCA, steroid or TCA/Steroid test article combinations) once daily for 2 days (day −2 and day −1) and 30 minutes prior to the acetic acid injection on day 0 (time=0). […] To elicit a pain response, dilute acetic acid (10 ml/kg of 0.6% solution) is injected intraperitoneally into the abdomen. The animal is placed in an observation chamber, and 5 minutes after acetic acid administration, the number of writhes is counted and recorded over a five minute period by a blinded observer. A writhe is considered as a contraction of the abdominal muscles accompanied by an elongation of the body and extension of the hind limb. Results are expressed as number of writhes.

SMILES: C[C@]12C=CC(=O)C=C1CC[C@@H]1[C@@H]2[C@@H](O)C[C@@]2(C)[C@H]1CC[C@]2(O)C(=O)CO [Prednisolone]
- Mean number of behaviors per 5 minute block ([1]; 1 mg/kg, 5 minutes): 224.0 ± 34.1
- Mean number of behaviors per 5 minute block ([1]; 1 mg/kg, 10 minutes): 27.0 ± 11.7
- Mean number of behaviors per 5 minute block ([1]; 1 mg/kg, 15 minutes): 18.0 ± 15.2
- Mean number of behaviors per 5 minute block ([1]; 1 mg/kg, 20 minutes): 115.0 ± 41.9
- Mean number of behaviors per 5 minute block ([1]; 1 mg/kg, 25 minutes): 172.0 ± 51.1
- Mean number of behaviors per 5 minute block ([1]; 1 mg/kg, 30 minutes): 178.0 ± 52.0
- Mean number of behaviors per 5 minute block ([1]; 1 mg/kg, 35 minutes): 174.0 ± 48.7
- Mean number of behaviors per 5 minute block ([1]; 1 mg/kg, 40 minutes): 207.0 ± 43.9
- Mean number of behaviors per 5 minute block ([1]; 1 mg/kg, 45 minutes): 197.0 ± 45.3
- Mean number of behaviors per 5 minute block ([1]; 1 mg/kg, 50 minutes): 192.0 ± 48.4
- Mean number of behaviors per 5 minute block ([1]; 1 mg/kg, 55 minutes): 113.0 ± 43.2
- Mean number of behaviors per 5 minute block ([1]; 1 mg/kg, 60 minutes): 92.0 ± 29.7
- Mean number of behaviors per 5 minute block ([1]; 3 mg/kg, 5 minutes): 218.0 ± 14.7
- Mean number of behaviors per 5 minute block ([1]; 3 mg/kg, 10 minutes): 15.0 ± 6.7
- Mean number of behaviors per 5 minute block ([1]; 3 mg/kg, 15 minutes): 6.0 ± 3.4
- Mean number of behaviors per 5 minute block ([1]; 3 mg/kg, 20 minutes): 68.0 ± 19.8
- Mean number of behaviors per 5 minute block ([1]; 3 mg/kg, 25 minutes): 208.0 ± 35.5
- Mean number of behaviors per 5 minute block ([1]; 3 mg/kg, 30 minutes): 214.0 ± 39.8
- Mean number of behaviors per 5 minute block ([1]; 3 mg/kg, 35 minutes): 254.0 ± 29.2
- Mean number of behaviors per 5 minute block ([1]; 3 mg/kg, 40 minutes): 269.0 ± 14.2
- Mean number of behaviors per 5 minute block ([1]; 3 mg/kg, 45 minutes): 258.0 ± 19.9
- Mean number of behaviors per 5 minute block ([1]; 3 mg/kg, 50 minutes): 221.0 ± 36.1
- Mean number of behaviors per 5 minute block ([1]; 3 mg/kg, 55 minutes): 198.0 ± 38.1
- Mean number of behaviors per 5 minute block ([1]; 3 mg/kg, 60 minutes): 133.0 ± 46.8
- Mean # of writhes per 5 minutes ± SEM ([2]; 1 mg/kg ip): 8.00 ± 1.70
- Mean # of writhes per 5 minutes ± SEM ([2]; 5 mg/kg ip): 14.43 ± 2.07
- Mean # of writhes per 5 minutes ± SEM ([2]; 10 mg/kg ip): 12.29 ± 3.83
- Mean # of writhes per 5 minutes ± SEM ([2]; 35 mg/kg ip): 11.29 ± 5.22
